Assay results reported in US9113629B2, “4-amino-6-(4-substituted-phenyl)-picolinates and 6-amino-2-(4-substituted-phenyl)-pyrimidine-4-carboxylates and their use as herbicides” (DOW AGROSCIENCES LLC, priority 2013, dated 2015).
Where two headings read alike, the source gives them in different places.

Key:
[1] = test system: Key Broadleaf Weed and Crop Species; assay: Post-emergent Test II herbicidal activity (Table 5); type: in vivo; conditions: post-emergence, 336 h, 14 days after application
Procedure, shortened: (§1)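 Foliar application at 187 L/ha to greenhouse-grown seedlings (first or second true leaf); subirrigation thereafter. Visual 0–100% injury at 14 d relative to untreated plants.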

[2] = test system: Key Grass and Sedge Weeds as well as Grass Crops; assay: Post-emergent Test II herbicidal activity (Table 6); type: in vivo; conditions: post-emergence, 336 h; for pest or weed control at 70 g/ha: application rate 70 g ai/ha; for pest or weed control at 140 g/ha: application rate 140 g ai/ha
Procedure, shortened: as §1

[3] = ABUTH: velvetleaf (Abutilon theophrasti), 70 g ai/ha, post-emergent, read-out: Visual Growth Reduction (%) 14 Days After Application ABUTH
[4] = ABUTH: velvetleaf (Abutilon theophrasti), 140 g ai/ha, post-emergent, read-out: Visual Growth Reduction (%) 14 Days After Application ABUTH
[5] = AMARE: redroot pigweed (Amaranthus retroflexus), 70 g ai/ha, post-emergent, read-out: Visual Growth Reduction (%) 14 Days After Application AMARE
[6] = AMARE: redroot pigweed (Amaranthus retroflexus), 140 g ai/ha, post-emergent, read-out: Visual Growth Reduction (%) 14 Days After Application AMARE
[7] = BRSNN: oilseed-rape, canola (Brassica napus), 70 g ai/ha, post-emergent, read-out: Visual Growth Reduction (%) 14 Days After Application BRSNN
[8] = BRSNN: oilseed-rape, canola (Brassica napus), 140 g ai/ha, post-emergent, read-out: Visual Growth Reduction (%) 14 Days After Application BRSNN
[9] = CHEAL: lambsquarters (Chenopodium album), 70 g ai/ha, post-emergent, read-out: Visual Growth Reduction (%) 14 Days After Application CHEAL
[10] = CHEAL: lambsquarters (Chenopodium album), 140 g ai/ha, post-emergent, read-out: Visual Growth Reduction (%) 14 Days After Application CHEAL
[11] = EPHHL: wild poinsettia (Euphorbia heterophylla), 70 g ai/ha, post-emergent, read-out: Visual Growth Reduction (%) 14 Days After Application EPHHL
[12] = EPHHL: wild poinsettia (Euphorbia heterophylla), 140 g ai/ha, post-emergent, read-out: Visual Growth Reduction (%) 14 Days After Application EPHHL
[13] = HELAN: sunflower (Helianthus annuus), 70 g ai/ha, post-emergent, read-out: Visual Growth Reduction (%) 14 Days After Application HELAN
[14] = HELAN: sunflower (Helianthus annuus), 140 g ai/ha, post-emergent, read-out: Visual Growth Reduction (%) 14 Days After Application HELAN
[15] = VIOTR: wild pansy (Viola tricolor), 70 g ai/ha, post-emergent, read-out: Visual Growth Reduction (%) 14 Days After Application VIOTR
[16] = VIOTR: wild pansy (Viola tricolor), 140 g ai/ha, post-emergent, read-out: Visual Growth Reduction (%) 14 Days After Application VIOTR
[17] = CYPES: yellow nutsedge (Cyperus esculentus), read-out: Visual Growth Reduction (%) 14 Days After Application, CYPES
[18] = DIGSA: crabgrass (Digitaria sanguinalis), read-out: Visual Growth Reduction (%) 14 Days After Application, DIGSA
[19] = ECHCG: barnyardgrass (Echinochloa crus-galli), read-out: Visual Growth Reduction (%) 14 Days After Application, ECHCG
[20] = ORYSA: rice (Oryza sativa), read-out: Visual Growth Reduction (%) 14 Days After Application, ORYSA
[21] = SETFA: giant foxtail (Setaria faberi), read-out: Visual Growth Reduction (%) 14 Days After Application, SETFA
[22] = SORVU: grain sorghum (Sorghum vulgare), read-out: Visual Growth Reduction (%) 14 Days After Application, SORVU
[23] = TRZSS (wheat, Triticum aestivum), read-out: Visual Growth Reduction (%) 14 Days After Application, TRZSS
[24] = ZEAMX: maize, corn (Zea mays), read-out: Visual Growth Reduction (%) 14 Days After Application, ZEAMX
[25] = Triticum aestivum, TRZSS (wheat), read-out: Visual Growth Reduction (%) 14 Days After Application, TRZSS

SMILES	melting point	pest or weed control at 70 g/ha [1, 3]	pest or weed control at 140 g/ha [1, 4]	pest or weed control at 70 g/ha [1, 5]	pest or weed control at 140 g/ha [1, 6]	pest or weed control at 70 g/ha [1, 7]	pest or weed control at 70 g/ha [2, 17]	pest or weed control at 140 g/ha [2, 17]	pest or weed control at 70 g/ha [2, 18]	pest or weed control at 140 g/ha [2, 18]	pest or weed control at 70 g/ha [2, 19]	pest or weed control at 140 g/ha [2, 19]	pest or weed control at 70 g/ha [2, 20]	pest or weed control at 140 g/ha [2, 20]	pest or weed control at 70 g/ha [2, 21]	pest or weed control at 140 g/ha [2, 21]	pest or weed control at 70 g/ha [2, 22]	pest or weed control at 140 g/ha [2, 22]	pest or weed control at 70 g/ha [2, 24]	pest or weed control at 140 g/ha [2, 24]	other results
C=Cc1c(N)nc(-c2ccc(C#N)cc2F)nc1C(=O)O [Compound 5, 6-Amino-2-(4-cyano-2-fluorophenyl)-5-vinylpyrimidine-4-carboxylic acid]	164 to 168 °C	0 to 29%	0 to 29%	0 to 29%	0 to 29%	0 to 29%	0 to 29%	0 to 29%	0 to 29%	0 to 29%	0 to 29%	0 to 29%	0 to 29%	0 to 29%	0 to 29%	0 to 29%	0 to 29%	0 to 29%	0 to 29%	0 to 29%	pest or weed control at 140 g/ha [1, 8]: 0 to 29%; pest or weed control at 70 g/ha [1, 9]: 0 to 29%; pest or weed control at 140 g/ha [1, 10]: 0 to 29%; pest or weed control at 70 g/ha [1, 11]: 0 to 29%; pest or weed control at 140 g/ha [1, 12]: 0 to 29%; pest or weed control at 70 g/ha [1, 13]: 85 to 94%; pest or weed control at 140 g/ha [1, 14]: 85 to 94%; pest or weed control at 70 g/ha [1, 15]: 0 to 29%; pest or weed control at 140 g/ha [1, 16]: 0 to 29%; pest or weed control at 70 g/ha [2, 23]: 0 to 29%; pest or weed control at 140 g/ha [2, 23]: 0 to 29%
COc1c(N)nc(-c2ccc(Br)c(F)c2F)nc1C(=O)O [Compound 8]	126 to 128 °C (dec.)						95 to 100%	95 to 100%	75 to 84%	85 to 94%	85 to 94%	85 to 94%	30 to 44%	45 to 59%	75 to 84%	95 to 100%	95 to 100%	95 to 100%	60 to 74%	85 to 94%	pest or weed control at 70 g/ha ([1]; ABUTH: velvetleaf (Abutilon theophrasti), application rate 70 g ai/ha, read-out: Visual Growth Reduction (%) 14 Days After Application, ABUTH): 95 to 100%; pest or weed control at 140 g/ha ([1]; ABUTH: velvetleaf (Abutilon theophrasti), application rate 140 g ai/ha, read-out: Visual Growth Reduction (%) 14 Days After Application, ABUTH): 95 to 100%; pest or weed control at 70 g/ha ([1]; AMARE: redroot pigweed (Amaranthus retroflexus), application rate 70 g ai/ha, read-out: Visual Growth Reduction (%) 14 Days After Application, AMARE): 95 to 100%; pest or weed control at 140 g/ha ([1]; AMARE: redroot pigweed (Amaranthus retroflexus), application rate 140 g ai/ha, read-out: Visual Growth Reduction (%) 14 Days After Application, AMARE): 95 to 100%; pest or weed control at 70 g/ha ([1]; BRSNN: oilseed-rape, canola (Brassica napus), application rate 70 g ai/ha, read-out: Visual Growth Reduction (%) 14 Days After Application, BRSNN): 95 to 100%; pest or weed control at 140 g/ha ([1]; BRSNN: oilseed-rape, canola (Brassica napus), application rate 140 g ai/ha, read-out: Visual Growth Reduction (%) 14 Days After Application, BRSNN): 95 to 100%; pest or weed control at 70 g/ha ([1]; CHEAL: lambsquarters (Chenopodium album), application rate 70 g ai/ha, read-out: Visual Growth Reduction (%) 14 Days After Application, CHEAL): 95 to 100%; pest or weed control at 140 g/ha ([1]; CHEAL: lambsquarters (Chenopodium album), application rate 140 g ai/ha, read-out: Visual Growth Reduction (%) 14 Days After Application, CHEAL): 95 to 100%; pest or weed control at 70 g/ha ([1]; EPHHL: wild poinsettia (Euphorbia heterophylla), application rate 70 g ai/ha, read-out: Visual Growth Reduction (%) 14 Days After Application, EPHHL): 95 to 100%; pest or weed control at 140 g/ha ([1]; EPHHL: wild poinsettia (Euphorbia heterophylla), application rate 140 g ai/ha, read-out: Visual Growth Reduction (%) 14 Days After Application, EPHHL): 95 to 100%; pest or weed control at 70 g/ha ([1]; HELAN: sunflower (Helianthus annuus), application rate 70 g ai/ha, read-out: Visual Growth Reduction (%) 14 Days After Application, HELAN): 95 to 100%; pest or weed control at 140 g/ha ([1]; HELAN: sunflower (Helianthus annuus), application rate 140 g ai/ha, read-out: Visual Growth Reduction (%) 14 Days After Application, HELAN): 95 to 100%; pest or weed control at 70 g/ha ([1]; VIOTR: wild pansy (Viola tricolor), application rate 70 g ai/ha, read-out: Visual Growth Reduction (%) 14 Days After Application, VIOTR): 95 to 100%; pest or weed control at 140 g/ha ([1]; VIOTR: wild pansy (Viola tricolor), application rate 140 g ai/ha, read-out: Visual Growth Reduction (%) 14 Days After Application, VIOTR): 95 to 100%; pest or weed control at 70 g/ha [2, 25]: 60 to 74%; pest or weed control at 140 g/ha [2, 25]: 75 to 84%
COC(=O)c1nc(-c2cc(F)c(C#N)cc2F)c(F)c(N)c1Cl [Compound 198]		60 to 74%	75 to 84%	60 to 74%	95 to 100%	75 to 84%	60 to 74%	60 to 74%	0 to 29%	0 to 29%	0 to 29%	0 to 29%	0 to 29%	0 to 29%	0 to 29%	0 to 29%	0 to 29%	0 to 29%	0 to 29%	0 to 29%	pest or weed control at 140 g/ha [1, 8]: 75 to 84%; pest or weed control at 70 g/ha [1, 9]: 85 to 94%; pest or weed control at 140 g/ha [1, 10]: 95 to 100%; pest or weed control at 70 g/ha [1, 11]: 45 to 59%; pest or weed control at 140 g/ha [1, 12]: 60 to 74%; pest or weed control at 70 g/ha [1, 13]: 95 to 100%; pest or weed control at 140 g/ha [1, 14]: 95 to 100%; pest or weed control at 70 g/ha [1, 15]: 30 to 44%; pest or weed control at 140 g/ha [1, 16]: 60 to 74%; pest or weed control at 70 g/ha [2, 23]: 30 to 44%; pest or weed control at 140 g/ha [2, 23]: 45 to 59%
